Data set [1] has as its system brain punch homogenate from the A2 region. Type of data set: biochemical, dog. The note with it: pH 7.5. The source says:
To study the metabolism of angiotensin in brain punch homogenates, ^125 I-labelled Ang I and Ang II (New England Nuclear, Boston, Mass., USA) were purified initially to remove the peptidase inhibitor trasylol by reverse phase high performance liquid chromatography (HPLC) using a Nova-Pak C column (Waters Associates, Milford, Mass., USA). Peptides were eluted isocratically with 33.6% acetonitrile (Burdick and Jackson, American Scientific Products, Columbus, Ohio, USA) in 0.13% heptafluorbutyric acid (HFBA; Sequenal grade, Pierce, Rockford, Ill., USA) at a flow rate of 1 ml/min. The effluent (0.25 ml/fraction) was collected in tubes precoated with bovine serum albumin (BSA; Pentex, Miles Scientific, Naperville, Ill., USA). After evaporation in a vacuum centrifuge (Savant, Farmingdale, N.Y., USA), the purified peptides were redissolved in water.
The metabolism of ^125 I-Ang I and ^125 I-Ang II was studied by incubating 10 μl of brain homogenates with 190 μl of an assay solution containing 50 pM labelled standards in 20 mM Tris HCl buffer, pH 7.5, and 0.01% BSA for 2 to 15 minutes at 37° C. The reactions were stopped by the addition of 100 μl of 32% acetonitrile containing 0.13% HFBA, followed by centrifugation at 18,000 g for 2 minutes. […]

The test system of the next data set is prolylendopeptidase. The experiment in a line: 125I-Ang-(1-7) production from 125I-Ang I in dog hypothalamus homogenates (HPLC). Type of data set: biochemical.
Another data set concerns NG108 cells. The experiment in a line: Ang-(1-7) production from Ang I in NG108 cells. Type of data set: cell-based.
The target in data set [2] is T1, angiotensin converting enzyme (ACE) (Canis lupus familiaris, UniProt A0A8I3S3I6).
T1 construct: The ACE activity was determined by incubating 10 μl of the supernatants; from tissue; host or cells: dog brainstem, spinal cord, choroid plexus and neurohypophysis punches
T1 sequence (A0A8I3S3I6 31-1241): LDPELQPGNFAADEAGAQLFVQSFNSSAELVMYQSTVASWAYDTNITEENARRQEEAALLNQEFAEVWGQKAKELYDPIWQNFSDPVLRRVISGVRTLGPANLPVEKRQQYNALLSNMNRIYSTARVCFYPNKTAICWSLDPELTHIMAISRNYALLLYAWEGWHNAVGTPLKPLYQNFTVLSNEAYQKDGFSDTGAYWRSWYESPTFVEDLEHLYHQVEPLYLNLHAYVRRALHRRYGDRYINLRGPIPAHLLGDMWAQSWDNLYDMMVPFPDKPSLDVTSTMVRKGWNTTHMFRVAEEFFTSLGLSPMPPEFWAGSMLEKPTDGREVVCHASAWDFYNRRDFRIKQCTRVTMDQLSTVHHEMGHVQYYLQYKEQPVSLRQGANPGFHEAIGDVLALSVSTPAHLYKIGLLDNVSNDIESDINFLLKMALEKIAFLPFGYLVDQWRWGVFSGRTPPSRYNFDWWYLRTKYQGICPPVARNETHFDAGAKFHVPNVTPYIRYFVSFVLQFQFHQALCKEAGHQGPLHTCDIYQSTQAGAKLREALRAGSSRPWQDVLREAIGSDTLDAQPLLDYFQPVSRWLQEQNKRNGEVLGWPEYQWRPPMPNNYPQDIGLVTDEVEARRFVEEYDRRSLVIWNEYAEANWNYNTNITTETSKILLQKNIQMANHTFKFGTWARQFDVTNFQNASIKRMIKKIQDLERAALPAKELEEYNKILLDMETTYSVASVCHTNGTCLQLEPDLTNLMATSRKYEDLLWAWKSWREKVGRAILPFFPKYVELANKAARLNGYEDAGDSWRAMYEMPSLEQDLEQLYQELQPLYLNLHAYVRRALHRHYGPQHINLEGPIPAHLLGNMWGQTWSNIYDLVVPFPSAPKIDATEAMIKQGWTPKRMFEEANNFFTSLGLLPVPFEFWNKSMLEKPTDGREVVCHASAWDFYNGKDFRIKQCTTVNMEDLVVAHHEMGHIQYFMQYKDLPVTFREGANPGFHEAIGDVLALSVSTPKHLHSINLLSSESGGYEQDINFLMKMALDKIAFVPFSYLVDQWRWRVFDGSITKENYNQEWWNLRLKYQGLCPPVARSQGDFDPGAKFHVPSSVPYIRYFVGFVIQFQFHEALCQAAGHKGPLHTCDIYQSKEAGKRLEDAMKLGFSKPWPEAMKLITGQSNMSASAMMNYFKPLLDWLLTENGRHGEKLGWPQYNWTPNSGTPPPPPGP
The experiment in a line: ACE activity assay (Hip-His-Leu, fluorometric) in dog brain tissue homogenates. The settings on record: 10 μM MK 422; read-out: inhibition of product released (ACE activity). Format: biochemical.
Method: Larger tissue samples were homogenized to a final concentration of 100 mg tissue ml/buffer. The homogenates were centrifuged at 18,000 g for two minutes at 4° C. The ACE activity was determined by incubating 10 μl of the supernatants with 500 μl of an assay solution containing 5 mM Hip-His-Leu (Sigma Chemical, St. Louis, Mo., USA) in 0.4 M sodium borate buffer, pH 8.3, and 0.9 M NaCl for 15 minutes at 37° C.) (Santos R. A. S., Krieger, E. M., Greene, L. J., An Improved Fluorometric Assay of Rat Serum and Plasma Converting Enzyme. […] The product His-Leu was measured fluorometrically (365 nm excitation, 495 emission; Aminco spectrofluorometer, American Instruments, Silver Springs, Md., USA). In punches obtained from the brainstem, neurohypophysis, and choroid plexus, the rate of reaction was linear over a 20-minute period and with the volume of the sample assayed (5-15 ul). Under these conditions, hydrolysis of the product His-Leu (Sigma) was less than 6% as evaluated indirectly fluorometry (Santos, et al. supra). […] Tissue ACE specific activity was expressed as units corresponding to 1 nmol/min/mg protein.

Data set [3] deals with T1, angiotensin converting enzyme (ACE). The experiment in a line: Tissue ACE activity in dog brain six hours after i.v. MK 422. Type of data set: in vivo. The settings on record: six hours after MK 422 10 mg/kg i.v.
Method: Experiments were performed on fourteen mongrel dogs weighing 16±2 kg and anesthetized with sodium pentobarbital (30 mg/kg i.v.). […] Ten of the fourteen dogs were given a lethal dose of sodium pentobarbital, and the brain and thoracic portion of the spinal cord (C6-T3) were excised immediately. The brain was removed from four other dogs six hours after a single injection of MK 422 (enalaprilat) at a dose of 10 mg/kg i.v.
Coronal sections (2000 μm thick) from either the brainstem or the spinal cord were laid on a frozen Petri dish placed under the operating microscope. […] Punches from coronal sections of the intermediolateral column of the spinal cord were obtained between C6 and T3. Blocks of tissue were also taken from the area postrema at the obex, the neurohypophysis, and the choroid plexus in the fourth ventricle. Remaining coronal tissue sections were analyzed separately. All tissue samples were kept on dry ice and stored at -70° C. until assayed.
The ACE activity and angiotensin metabolism were measured in tissue samples obtained from five control and four MK 422-treated dogs.
Larger tissue samples were homogenized to a final concentration of 100 mg tissue ml/buffer. The homogenates were centrifuged at 18,000 g for two minutes at 4° C. The ACE activity was determined by incubating 10 μl of the supernatants with 500 μl of an assay solution containing 5 mM Hip-His-Leu (Sigma Chemical, St. Louis, Mo., USA) in 0.4 M sodium borate buffer, pH 8.3, and 0.9 M NaCl for 15 minutes at 37° C.) (Santos R. A. S., Krieger, E. M., Greene, L. J., An Improved Fluorometric Assay of Rat Serum and Plasma Converting Enzyme. […] The product His-Leu was measured fluorometrically (365 nm excitation, 495 emission; Aminco spectrofluorometer, American Instruments, Silver Springs, Md., USA). […] Under these conditions, hydrolysis of the product His-Leu (Sigma) was less than 6% as evaluated indirectly fluorometry (Santos, et al. supra). […] Tissue ACE specific activity was expressed as units corresponding to 1 nmol/min/mg protein.
Data set [4] has as its system spontaneously hypertensive rats (SHR). The experiment in a line: Blood angiotensin peptides (RIA) after i.v. Ang I in conscious SHR with enzyme inhibitors. The settings on record: SHR. Type of data set: in vivo, rat. As for the experimental part: (§1) All experiments were carried out in strict adherence to the principles sponsored by the American Physiological Society. Male 16-week-old SHR(319±4 gm) and WKY(315±4 gm) controls (Charles River, Wilmington, Mass.) were housed in rooms maintained on a 12 hr light-dark cycle. Animals ate a solid diet of rat chow (Purina, Bedford, Ohio) and had free access to water. Cannulas (PE-50 and PE-10, Clay Adams Becton Dickinson, Parsippany, N.J.) were implanted into a femoral artery and vein using aseptic conditions in rats anesthetized with 1% halothane 24 hours beforehand. The free ends of the cannulas were tunneled under the skin and externalized at the back of the neck.
(§2) Conscious rats were divided into five groups. Group I (n=4 SHR and 4 WKY) received an i.v. injection of 0.9% NaCl. Group II (n=4 SHR and 4 WKY) was given an i.v. injection of enalaprilat (MK-422,2 mg/kg). Group III (n=4 SHR and 4 WKY) was injected with (N-{N-[1-(S)-carboxy-3-phenylpropyl]-(S)-phenylalanyl}-(S)-isoserine) at a dose of 15 mg/kg. […] Group IV (n=4 SHR and 4 WKY) received both MK-422 (2 mg/kg) and SCH 39,370 (15 mg/kg). Group V (n=3 SHR and 3 WKY) were given MK- 422 (2 mg/kg) and Z-prolyl-prolinal (5 mg/kg), a specific inhibitor of prolyl endopeptidase (Friedman TC, Orlowski M, Wilk S: Prolyl Endopeptidase: Inhibition in vivo by N-benzyloxycarbonyl-prolyl-prolinal. J. Neurochem. 42:237-241,1984). Either saline (vehicle) or the enzyme inhibitors were administered 20 minutes before an i.v. injection of 0.2 ml of Ang I (2 nmol) in heparinized saline. Serial samples of arterial blood (0.2 ml) were rapidly collected into ice-chilled tubes containing 5 ml of 80% ethanol/0.1N HCL every 15-30 sec before and after injection of Ang I. The amount of blood removed in each sample was replaced with an equal volume of saline. The dead space (0.08 ml) of the femoral artery catheter was cleared of any remaining saline or blood before obtaining the samples.
(§3) Peptide Extraction and Analyses: Samples were centrifuged at 5,000 g for 20 minutes; the supernatant was stored for 12 hours at -20° C. After a second centrifugation step (10,000 g, 20 min) the supernatant was diluted 1:1 (V:V) with 1% heptaflurobutyric acid (HFBA), stored for 4-6 […] hours at 4° C., and centrifuged again at 15,000 g. This supernatant was further diluted 1:4 with 0.2% HFBA and concentrated on a Sep-Pak Vac Cartridge (Millipore Co., Milford, Mass.) activated beforehand with 3 ml of 60% acetonitrile/0.2% HFBA, 3 ml of 0.1% bovine serum albumin in 0.2% HFBA, and 5 ml of HFBA. After application of the supernatant, the column was washed with 10 ml of 0.2% HFBA. Angiotensin peptides were eluted with 8 ml of 60% acetonitrile/0.2% HFBA. Fractions were evaporated to dryness in a vacuum centrifuge (Savant Instrument Inc., Hicksville, N.Y.) for measurements by radioimmunoassay (RIA). Different aliquots of the samples were assayed to ensure linearity. Peptide recovery for Ang I added to the acid ethanol solution prior to blood sample averaged 85±4%, n=6, SFM): peptide values were not corrected for recovery. Moreover, no in vitro conversion of Ang I into either Ang-(1-7) or Ang II was observed.
(§4) The RIAs employed by the inventors to determine concentrations of Ang I, Ang II, and Ang-(1-7) are described in detail elsewhere. See, Chappell MC, Brosnihan KB, Diz DI, Ferrario CM: Identification of Angiotensin-(1-7) in Rat Brain: Evidence for Differential Processing of Agiotensin Peptides. J. Biol. Chem. […]:16518-16523,1989; and, Kohara K, Brosnihan KB, Chappell MC, Khosla MC, Ferrario CM: Angiotensin-(1-7): A Member of Circulating Angiotensin Peptides. Hypertension 17:131-138, 1991. […] The sensitivity of the Ang I assay (defined as twice the minimum detection level) averaged 5 fmol/tube. The Ang II antibody was produced by the inventors. […] The sensitivity of the Ang II RIA is 0.5 fmol/tube. The antibody of Ang-(1-7) (Core No. 1) was obtained in the inventors laboratory. […]

In a further data set the test system is Wistar Kyoto (WKY) rats. The experiment in a line: Blood angiotensin peptides (RIA) after i.v. Ang I in conscious WKY with enzyme inhibitors. Format: in vivo, rat. As for the experimental part:
as §1, §2, §3, §4

No end group written: not given here.

Experimental findings from US5451571A (The Cleveland Clinic Foundation, priority 1994, dated 1995) are described below.

Method for prolylendopeptidase: As a result of these discoveries, the enzyme(s) involved in the production of Ang-(1-7) in homogenates (20 mM TRIS HCl buffer, pH 7.5) of dog hypothalamus were evaluated.

Turning to “^125 I-Ang II: 125I-labelled Ang II used as substrate (DRVYIHPF; also: 125I label; UniProt P01019 25-32, looked up)”, the “major / primary metabolic product of the labelled peptide” value in data set [1] is “Ang-(1-7)”.

For `CC(C)C[C@H](NP(=O)(O)O[C@@H]1O[C@@H](C)[C@H](O)[C@@H](O)[C@H]1O)C(=O)N[C@@H](Cc1c[nH]c2ccccc12)C(=O)O` [Phosphoramidon], in the data set with prolylendopeptidase, the “inhibition of Ang-(1-7) formation” value was 12%. Further, the “production of Ang-(1-7) in the presence of the inhibitor” value in the data set with prolylendopeptidase (canine hypothalamic homogenates) and with NG108 cells was “not inhibited” each time.

One may read the inhibition as how much of the control response was suppressed. For `C[C@H](N[C@@H](CCc1ccccc1)C(=O)O)C(=O)N1CCC[C@H]1C(=O)O` [MK 422, enalaprilat], in data set [2], the inhibition at 10 µM is 98%. Besides, the “ACE activity in homogenates from the choroid plexus” value in data set [3] is reported as 14.9±0.6 U. For the same compound, in data set [3], the “ACE activity in other regions of the brainstem” value is reported as “did not change”. Besides, the “ACE activity in the A2 region (between -2 and +4 mm of the obex)” value in data set [3] (untreated controls 22.5±1.6 U) came to 16.7±1.7 U. Besides, the “increase of peak Ang-(1-7) over values found in control rats” value in data set [4] (MK-422 2 mg/kg) is “three-fold”; in the data set on Wistar Kyoto (WKY) rats (MK-422 2 mg/kg), “two-fold”. Moreover, the “Ang II formation / production” value (in data set [4] (after Ang I 2 nmol i.v.); in the data set on Wistar Kyoto (WKY) rats (after Ang I 2 nmol i.v.)) was “eliminated” throughout.
